Here are results for 1 compound from patent publication US8956997B2, “Plant conditioner composition and method” (priority 2010, dated 2015).

Data set [1] has as its system thrips. The experiment in a line: Thrips kill test on isolated thrips and treated plants. Type of data set: in vivo. An excerpt:
Obvious testing by using a loop and magnifier concluded that the Dragon Juice 50 kills 100% of the spider mites, even after 6 weeks in the refrigerator. […] The Inventor tested more H202 and the tea tree oil combinations.

Data set [2] relates to plants. Briefly: Plant size, produce and plant damage in indoor and outdoor gardens. The class given is in vivo. Conditions: more H202 and tea tree oil combinations added to the mix. How it is done:
This product was tested in the Inventor's garden. At the time the garden was infested with spider mites and thrips. There were cob webs and major plant damage. The option was to destroy the garden. It seemed hopeless. […] Originally the solution was too strong, and it severely damaged the plants and killed every living thing on the plants as well as the plants. After going back and testing each of the ingredients separately (a few weeks at a time over the course of five years) the Inventor concluded how much of each ingredient to use per gallon. After that, the Inventor combined the sugars and started adding each ingredient while testing shelf life and refrigerator life of Dragon Juice 50. […] The concentrate variations have been tested in indoor and outdoor gardens. The results have been fantastic as all of the products produced have been getting outstanding customer approval for quality, and flavor. […] It also helps to keep the plant healthier from the stress of the concentrated oils. The salt (see below) is another last minute ingredient included after studying and talking with a state health inspector. The Inventor realized that the salt breaks down selenium in the water so the plant can use the nutrients and convert the use of sugars more effectively. As the H202 takes away microorganisms, the vitamins, and carbohydrates rebuild a healthy environment for the plants new growth. […]

For `OO` [H202, hydrogen peroxide], the effect on thrips entry in data set [1] is listed as “killed the thrips”. Also, the “plant damage (leaves)” value in data set [2] is “started burning the leaves”.
